# Article PMC7672476, “Structural basis of Mfd-dependent transcription termination” (Nucleic Acids Research, 2020)
# Molecular target: T1, T. thermophilus Mfd (Thermus thermophilus, UniProt Q72KB4)
# T1 construct: full-length, N-terminal hexahistidine tag, plasmid pET28a-NH-TthMfd, expressed in E. coli BL21(DE3)
# T1 sequence (Q72KB4 1-978): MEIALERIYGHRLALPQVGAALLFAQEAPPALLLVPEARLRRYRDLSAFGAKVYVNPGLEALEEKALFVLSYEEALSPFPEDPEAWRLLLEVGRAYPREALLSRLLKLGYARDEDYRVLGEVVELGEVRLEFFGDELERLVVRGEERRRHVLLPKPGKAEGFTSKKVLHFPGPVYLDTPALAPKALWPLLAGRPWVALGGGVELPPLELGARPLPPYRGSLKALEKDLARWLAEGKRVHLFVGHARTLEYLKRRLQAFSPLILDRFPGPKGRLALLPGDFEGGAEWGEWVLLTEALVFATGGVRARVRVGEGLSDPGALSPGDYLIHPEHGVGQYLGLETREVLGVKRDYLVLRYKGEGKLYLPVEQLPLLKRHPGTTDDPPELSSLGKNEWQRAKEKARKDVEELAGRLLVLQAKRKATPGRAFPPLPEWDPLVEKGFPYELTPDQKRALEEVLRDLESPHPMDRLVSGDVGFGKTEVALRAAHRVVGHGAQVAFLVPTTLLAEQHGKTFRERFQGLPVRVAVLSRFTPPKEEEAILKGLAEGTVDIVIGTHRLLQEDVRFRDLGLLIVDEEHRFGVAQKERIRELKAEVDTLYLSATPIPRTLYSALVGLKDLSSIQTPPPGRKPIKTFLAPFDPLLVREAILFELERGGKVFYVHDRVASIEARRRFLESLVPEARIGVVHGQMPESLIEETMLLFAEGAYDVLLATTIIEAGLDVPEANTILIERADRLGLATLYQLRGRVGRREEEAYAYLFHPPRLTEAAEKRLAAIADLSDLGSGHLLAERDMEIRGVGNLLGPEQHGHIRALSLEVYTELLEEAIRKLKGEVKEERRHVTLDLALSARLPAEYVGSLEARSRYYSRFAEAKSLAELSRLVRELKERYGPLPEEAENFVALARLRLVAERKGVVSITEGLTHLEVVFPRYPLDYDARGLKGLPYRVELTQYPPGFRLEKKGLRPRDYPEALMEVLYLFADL
# Assay: colorimetric phosphate release ATPase assay
# Assay type: biochemical
# Settings: 10 mM MgCl2, 0.1 M KCl, pH 7.9, 37°C; 0.4-2 mM ATP
compound,measurement,value
Nc1ncnc2c1ncn2[C@@H]1O[C@H](COP(=O)(O)OP(=O)(O)OP(=O)(O)O)[C@@H](O)[C@H]1O [ATP],colorimetric phosphate release ATPase assay,ATPase activity assay verified that T. thermophilus Mfd hydrolyzed ATP
